Molecules are shown by their SMILES.

This assay addresses T1, full length human TPH1 (Homo sapiens, UniProt P17752).
T1 construct: To generate the enzyme, full length human TPH1 is cloned into the plasmid pET20b(+); made in house; host or cells: E. coli
T1 sequence (P17752 1-444): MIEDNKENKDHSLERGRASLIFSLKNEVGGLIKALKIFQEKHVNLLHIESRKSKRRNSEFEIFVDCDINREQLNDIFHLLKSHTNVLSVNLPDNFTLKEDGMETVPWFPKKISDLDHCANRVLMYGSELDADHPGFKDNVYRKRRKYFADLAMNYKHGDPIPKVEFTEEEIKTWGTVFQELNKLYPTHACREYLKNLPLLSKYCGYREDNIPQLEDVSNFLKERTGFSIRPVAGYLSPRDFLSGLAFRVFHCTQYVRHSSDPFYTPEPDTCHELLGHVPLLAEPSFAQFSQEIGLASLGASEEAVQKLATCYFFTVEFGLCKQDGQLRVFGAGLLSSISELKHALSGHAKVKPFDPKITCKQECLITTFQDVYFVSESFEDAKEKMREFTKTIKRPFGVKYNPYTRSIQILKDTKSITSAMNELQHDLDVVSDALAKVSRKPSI
The assay can be described thus: Biochemical in vitro assay using fluorescence readout (TPH1 enzyme activity). The note with it: Table 1, mean where determined several times. The source says:
Inhibitory activities on tryptophan hydroxylase 1 have been measured for each example compound using the following procedure:
Biochemical In Vitro Assay Using Fluorescence Readout
To generate the enzyme, full length human TPH1 is cloned into the plasmid pET20b(+) (Novagen) and expressed in E. coli. The bacterial cells are ruptured by sonication on ice and the lysate is cleared by centrifugation. The resulting protein in the pellet is re-extracted and TPH1 is purified from the obtained lysate by affinity chromatography using a pterin cosubstrate analog immobilized to the resin of the column. The protein is further purified by size exclusion chromatography to remove protein aggregates. The activity of TPH1 is determined by using a fluorescence assay. The enzyme activity assay is carried out at 15° C. with atmosphere oxygen for the duration of 60 minutes in a volume of 64 μl. The reaction is carried out in a 0.1M Tris-HCl buffer, adjusted to pH 7.6, containing 1 mM DTT, 0.2 mg/ml catalase, 100 μM (±)-6-methyl-5,6,7,8-tetrahydropterine dihydrochloride, 40 μM L-tryptophan, and 40-80 nM of TPH1. The reaction is started by bringing together L-tryptophan with all the other reaction substituents and stopped by quenching with perchloric acid (HClO4). The amount of 5-hydroxy-L-tryptophan produced during the enzymatic reaction is determined by fluorescence readout. Fluorescence, as determined at 540 nm when excited at 300 nm wavelength, increases proportionally to the 5-hydroxy-L-tryptophan formed. Compounds are prepared as 10 mM stock solution in DMSO, then diluted in 384-well plates using DMSO followed by a transfer of the dilutions into the assay plate. Fluorescence is measured for each well and the fluorescence at 540 nm wavelength is compared to the fluorescence of the vehicle in place of compound. Inhibitory activities of example compounds with respect to the TPH1 protein are determined by calculating the IC50 value (the concentration of compound needed to inhibit 50% of the enzyme activity). The calculated IC50 values may fluctuate depending on the daily biochemical assay performance. Fluctuations of this kind are known to those skilled in the art. In the case where IC50 values have been determined several times for the same compound, the mean is given.
By IC50 is commonly meant the concentration at which inhibition is half-maximal. Low readings indicate higher potency, high ones lower potency. In the case of `Cc1nc(C(C)C)sc1C1c2c(nc3n2CCCC3)CCN1C(=O)COc1ccc(NS(C)(=O)=O)nc1Cl` (stereo not shown) [Example 1.12.1, N-(6-chloro-5-(2-(1-(2-isopropyl-4-methylthiazol-5-yl)-3,4,6,7,8,9-hexahydroimidazo[1,2-a:5,4-c′]dipyridin-2(1H)-yl)-2-oxoethoxy)pyridin-2-yl)methanesulfonamide], 819 nM corresponded to half-maximal inhibition (IC50).
As for `CCc1nc(C(=O)NC2CC2)ccc1OCC(=O)N1CCc2nc3n(c2C1c1ncc(C2CC2)cc1F)CCS3` (stereo not shown) [Example 4.2.1, N-cyclopropyl-5-(2-(5-(5-cyclopropyl-3-fluoropyridin-2-yl)-2,3,7,8-tetrahydrothiazolo[2′,3′:2,3]imidazo[4,5-c]pyridin-6(5H)-yl)-2-oxoethoxy)-6-ethylpicolinamide], the figure is 8 nM.
As for `CC(C)(C)OC(=O)N1CCn2c(nc3c2C(c2ncc(C4CC4)cc2F)N(C(=O)COc2ccc(N4CCOCC4)nc2Cl)CC3)C1` (stereo not shown) [Example 5.4.1, tert-butyl 2-(2-((2-chloro-6-morpholinopyridin-3-yl)oxy)acetyl)-1-(5-cyclopropyl-3-fluoropyridin-2-yl)-1,2,3,4,8,9-hexahydropyrido[4′,3′:4,5]imidazo[1,2-a]pyrazine-7(6H)-carboxylate], the figure is 77 nM.
As for `Cc1ccc(C2c3c(nc4n3CCCC4)CCN2C(=O)COc2ccc(NS(C)(=O)=O)nc2Cl)c(F)c1` (stereo not shown) [Example 1.2.1, N-(6-chloro-5-(2-(1-(2-fluoro-4-methylphenyl)-3,4,6,7,8,9-hexahydroimidazo[1,2-a:5,4-c′]dipyridin-2(1H)-yl)-2-oxoethoxy)pyridin-2-yl)methanesulfonamide], the figure is 41 nM; as for `COC(C)(C)c1ccc(C2c3c(nc4n3CCCC4)CCN2C(=O)COc2ccc(NS(C)(=O)=O)nc2Cl)c(F)c1` (stereo not shown) [Example 1.25.2, N-(6-chloro-5-(2-(1-(2-fluoro-4-(2-methoxypropan-2-yl)phenyl)-3,4,6,7,8,9-hexahydroimidazo[1,2-a:5,4-c′]dipyridin-2(1H)-yl)-2-oxoethoxy)pyridin-2-yl)methanesulfonamide], 303 nM; as for `CCc1nc(N2CCCS2(=O)=O)ccc1OCC(=O)N1CCc2nc3n(c2C1c1sc(C)nc1C)CCC3` (stereo not shown) [Example 2.4.1, 1-(1-(2,4-dimethylthiazol-5-yl)-3,4,7,8-tetrahydro-1H-pyrrolo[2′,1′:2,3]imidazo[4,5-c]pyridin-2(6H)-yl)-2-((6-(1,1-dioxidoisothiazolidin-2-yl)-2-ethylpyridin-3-yl)oxy)ethanone], 8 nM.
On to `CC(=O)N1CCn2c(nc3c2C(c2sccc2F)N(C(=O)COc2ccc(N4CCOCC4)nc2Cl)CC3)C1` (stereo not shown) [Example 5.13.1, 1-(7-acetyl-1-(3-fluorothiophen-2-yl)-3,4,6,7,8,9-hexahydropyrido[4′,3′:4,5]imidazo[1,2-a]pyrazin-2(1H)-yl)-2-((2-chloro-6-morpholinopyridin-3-yl)oxy)ethanone], for which the IC50 came to 6 nM.
As for `CC(=O)N1CCn2c(nc3c2C(c2ncc(Cl)cc2F)N(C(=O)COc2ccc(N4CCOCC4)nc2Cl)CC3)C1` (stereo not shown) [Example 5.9.1, 1-(7-acetyl-1-(5-chloro-3-fluoropyridin-2-yl)-3,4,6,7,8,9-hexahydropyrido[4′,3′:4,5]imidazo[1,2-a]pyrazin-2(1H)-yl)-2-((2-chloro-6-morpholinopyridin-3-yl)oxy)ethanone], the figure is 8 nM.
As for `CCc1nc(C)ccc1OCC(=O)N1CCc2nc3n(c2C1c1ccc(C2CC2)cc1F)CCNC3` (stereo not shown) [Example 5.2.3, 1-(1-(4-cyclopropyl-2-fluorophenyl)-3,4,6,7,8,9-hexahydropyrido[4′,3′:4,5]imidazo[1,2-a]pyrazin-2(1H)-yl)-2-((2-ethyl-6-methylpyridin-3-yl)oxy)ethanone], the figure is 54 nM; as for `CS(=O)(=O)Nc1ccc(OCC(=O)N2CCc3nc4n(c3C2c2ncc(C3CC3)cc2F)CCCC4)c(Cl)n1` (stereo not shown) [Example 1.3.1, N-(6-chloro-5-(2-(1-(5-cyclopropyl-3-fluoropyridin-2-yl)-3,4,6,7,8,9-hexahydroimidazo[1,2-a:5,4-c′]dipyridin-2(1H)-yl)-2-oxoethoxy)pyridin-2-yl)methanesulfonamide], 63 nM.
As for `COCc1ccc(C2c3c(nc4n3CCCC4)CCN2C(=O)COc2ccc(NS(C)(=O)=O)nc2Cl)c(F)c1` (stereo not shown) [Example 1.26.2, N-(6-chloro-5-(2-(1-(2-fluoro-4-(methoxymethyl)phenyl)-3,4,6,7,8,9-hexahydroimidazo[1,2-a:5,4-c′]dipyridin-2(1H)-yl)-2-oxoethoxy)pyridin-2-yl)methanesulfonamide], the figure is 25 nM.
As to `CS(=O)(=O)Nc1ccc(OCC(=O)N2CCc3nc4n(c3C2c2ccc(Cl)cc2F)CCCC4)c(Cl)n1` (stereo not shown) [Example 1.1.3, N-(6-chloro-5-(2-(1-(4-chloro-2-fluorophenyl)-3,4,6,7,8,9-hexahydroimidazo[1,2-a:5,4-c′]dipyridin-2(1H)-yl)-2-oxoethoxy)pyridin-2-yl)methanesulfonamide], the IC50 worked out at 26 nM.
Compound `Cc1ccc(C2c3c(nc4n3CCC4)CCN2C(=O)COc2ccc(NS(C)(=O)=O)nc2Cl)c(F)c1` (stereo not shown) [Example 2.2.1, N-(6-chloro-5-(2-(1-(2-fluoro-4-methylphenyl)-3,4,7,8-tetrahydro-1H-pyrrolo[2′,1′:2,3]imidazo[4,5-c]pyridin-2(6H)-yl)-2-oxoethoxy)pyridin-2-yl)methanesulfonamide] had a half-inhibitory concentration (IC50) of 15 nM.
In turn, `CCc1nc(C(=O)NC2CC2)ccc1OCC(=O)N1CCc2nc3n(c2[C@@H]1c1sc(C)nc1C)CCC3` [Example 2.4.3, (R)-N-cyclopropyl-5-(2-(1-(2,4-dimethylthiazol-5-yl)-3,4,7,8-tetrahydro-1H-pyrrolo[2′,1′:2,3]imidazo[4,5-c]pyridin-2(6H)-yl)-2-oxoethoxy)-6-ethylpicolinamide] showed an IC50 of 9 nM.
As for `CCc1nc(N2CCCS2(=O)=O)ccc1OCC(=O)N1CCc2nc3n(c2C1c1ccc(Cl)cc1F)CCS3` (stereo not shown) [Example 4.1.6, 1-(5-(4-chloro-2-fluorophenyl)-2,3,7,8-tetrahydrothiazolo[2′,3′:2,3]imidazo[4,5-c]pyridin-6(5H)-yl)-2-((6-(1,1-dioxidoisothiazolidin-2-yl)-2-ethylpyridin-3-yl)oxy)ethanone], the IC50 was 12 nM.
Regarding `CC(=O)N1CCn2c(nc3c2C(c2ccc(C)cc2F)N(C(=O)COc2ccc(CN4CCOCC4)cc2Cl)CC3)C1` (stereo not shown) [Example 5.12.3, 1-(7-acetyl-1-(2-fluoro-4-methylphenyl)-3,4,6,7,8,9-hexahydropyrido[4′,3′:4,5]imidazo[1,2-a]pyrazin-2(1H)-yl)-2-(2-chloro-4-(morpholinomethyl)phenoxy)ethanone], the IC50 is 15 nM.
As for `O=C(COc1ccc(N2CCOCC2)cc1Cl)N1CCc2nc3n(c2C1c1ccc(C2CC2)cc1F)CCN(CC1CC1)C3` (stereo not shown) [Example 5.2.7, 2-(2-chloro-4-morpholinophenoxy)-1-(1-(4-cyclopropyl-2-fluorophenyl)-7-(cyclopropylmethyl)-3,4,6,7,8,9-hexahydropyrido[4′,3′:4,5]imidazo[1,2-a]pyrazin-2(1H)-yl)ethanone], the figure is 8 nM; as for `CN(C(=O)c1ccc(OCC(=O)N2CCc3nc4n(c3C2c2ccc(C3CC3)cc2F)CCCC4)c(Cl)n1)C1CC1` (stereo not shown) [Example 1.8.1, 6-chloro-N-cyclopropyl-5-(2-(1-(4-cyclopropyl-2-fluorophenyl)-3,4,6,7,8,9-hexahydroimidazo[1,2-a:5,4-c′]dipyridin-2(1H)-yl)-2-oxoethoxy)-N-methylpicolinamide], 20 nM; as for `CS(=O)(=O)c1ccc(OCC(=O)N2CCc3nc4n(c3C2c2ccc(Cl)cc2F)CCCC4)c(Cl)n1` (stereo not shown) [Example 1.1.28, 1-(1-(4-chloro-2-fluorophenyl)-3,4,6,7,8,9-hexahydroimidazo[1,2-a:5,4-c′]dipyridin-2(1H)-yl)-2-((2-chloro-6-(methylsulfonyl)pyridin-3-yl)oxy)ethan-1-one], 90 nM.

(Values after patent US10189839B2, “Tricyclic imidazole compounds as inhibitors of tryptophan hydroxylase” (ACTELION PHARMACEUTICALS LTD, priority 2013, dated 2019).)
